From publication PMC9868654, “Discovery of a potent olaparib–chlorambucil hybrid inhibitor of PARP1 for the treatment of cancer” (Frontiers in Pharmacology, 2023)
One block for each compound: values may come before it.

What was measured:
PARP1 = PARP1 (Homo sapiens, UniProt P09874); experiment: PARP1 enzyme inhibitory assay; assay type: biochemical; conditions: mean of three experiments
MDA-MB-436 cells = experiment: In vitro antiproliferative assay (CCK-8); assay type: cell-based; conditions: Homo sapiens; MDA-MB-436, BRCA-mutated; CCK-8, 72 h; mean of three
Protocol: (§1) The proliferation of cancer cells was tested by CCK-8 assay. Briefly, cells were seeded in 96-well plates at approximately 5 × 10^3 cells per well. The cells were treated with test compounds after 24 h of incubation. CCK-8 reagent ([…]) was added to each well after 72 h of incubation, and the cells were then incubated at 37°C for 4 h. The light absorbance at 450 nm was measured using an Opsys microplate reader (Dynex Technologies, Chantilly, VA, United States). Results are illustrated as percentage viability normalized to DMSO-treated control cells.

SKOV3 cells = experiment: In vitro antiproliferative assay (CCK-8); assay type: cell-based; conditions: Homo sapiens, SK-OV-3; SKOV3, without BRCA mutations; CCK-8, 72 h; mean of three
Protocol: as §1

A549 cells = experiment: In vitro antiproliferative assay (CCK-8); assay type: cell-based; conditions: Homo sapiens; A549, without BRCA mutations; CCK-8, 72 h; mean of three
Protocol: as §1

U251 cells = experiment: In vitro antiproliferative assay (CCK-8); assay type: cell-based; conditions: Homo sapiens, U-251; U251, without BRCA mutations; CCK-8, 72 h; mean of three
Protocol: as §1

CH151 cells = experiment: In vitro antiproliferative assay (CCK-8); assay type: cell-based; conditions: CH151, without BRCA mutations; CCK-8, 72 h; mean of three
Protocol: as §1

8226 cells = experiment: In vitro antiproliferative assay (CCK-8); assay type: cell-based; conditions: 8226, without BRCA mutations; CCK-8, 72 h; mean of three
Protocol: as §1

U87 cells = experiment: In vitro antiproliferative assay (CCK-8); assay type: cell-based; conditions: Homo sapiens, U-87 MG; U87, without BRCA mutations; CCK-8, 72 h; mean of three
Protocol: as §1

MCF-7 cells = experiment: In vitro antiproliferative assay (CCK-8); assay type: cell-based; conditions: Homo sapiens, MCF7; MCF-7, without BRCA mutations; CCK-8, 72 h; mean of three
Protocol: as §1

SW620 cells = experiment: In vitro antiproliferative assay (CCK-8); assay type: cell-based; conditions: Homo sapiens, SW-620; SW620, without BRCA mutations; CCK-8, 72 h; mean of three
Protocol: as §1

MDA-MB-231 cells = experiment: In vitro antiproliferative assay (CCK-8); assay type: cell-based; conditions: Homo sapiens; MDA-MB-231, without BRCA mutations; CCK-8, 72 h; mean of three
Protocol: as §1

K562 cells = experiment: In vitro antiproliferative assay (CCK-8); assay type: cell-based; conditions: Homo sapiens; K562, without BRCA mutations; CCK-8, 72 h; mean of three
Protocol: as §1

B16 cells = experiment: In vitro antiproliferative assay (CCK-8); assay type: cell-based; conditions: Mus musculus; B16, without BRCA mutations; CCK-8, 72 h; mean of three
Protocol: as §1

Hela cells = experiment: In vitro antiproliferative assay (CCK-8); assay type: cell-based; conditions: Homo sapiens, without BRCA mutations, CCK-8, 72 h, mean of three
Protocol: as §1

HCC1937 cells = experiment: In vitro antiproliferative assay (CCK-8); assay type: cell-based; conditions: Homo sapiens; HCC1937, BRCA-mutated; CCK-8, 72 h; mean of three
Protocol: as §1

Capan-1 cells = experiment: In vitro antiproliferative assay (CCK-8); assay type: cell-based; conditions: Homo sapiens; Capan-1, BRCA-mutated; CCK-8, 72 h; mean of three
Protocol: as §1

Raji cells = experiment: In vitro antiproliferative assay (CCK-8); assay type: cell-based; conditions: Homo sapiens, without BRCA mutations, CCK-8, 72 h, mean of three
Protocol: as §1

Sequence of PARP1 (P09874 whole entry): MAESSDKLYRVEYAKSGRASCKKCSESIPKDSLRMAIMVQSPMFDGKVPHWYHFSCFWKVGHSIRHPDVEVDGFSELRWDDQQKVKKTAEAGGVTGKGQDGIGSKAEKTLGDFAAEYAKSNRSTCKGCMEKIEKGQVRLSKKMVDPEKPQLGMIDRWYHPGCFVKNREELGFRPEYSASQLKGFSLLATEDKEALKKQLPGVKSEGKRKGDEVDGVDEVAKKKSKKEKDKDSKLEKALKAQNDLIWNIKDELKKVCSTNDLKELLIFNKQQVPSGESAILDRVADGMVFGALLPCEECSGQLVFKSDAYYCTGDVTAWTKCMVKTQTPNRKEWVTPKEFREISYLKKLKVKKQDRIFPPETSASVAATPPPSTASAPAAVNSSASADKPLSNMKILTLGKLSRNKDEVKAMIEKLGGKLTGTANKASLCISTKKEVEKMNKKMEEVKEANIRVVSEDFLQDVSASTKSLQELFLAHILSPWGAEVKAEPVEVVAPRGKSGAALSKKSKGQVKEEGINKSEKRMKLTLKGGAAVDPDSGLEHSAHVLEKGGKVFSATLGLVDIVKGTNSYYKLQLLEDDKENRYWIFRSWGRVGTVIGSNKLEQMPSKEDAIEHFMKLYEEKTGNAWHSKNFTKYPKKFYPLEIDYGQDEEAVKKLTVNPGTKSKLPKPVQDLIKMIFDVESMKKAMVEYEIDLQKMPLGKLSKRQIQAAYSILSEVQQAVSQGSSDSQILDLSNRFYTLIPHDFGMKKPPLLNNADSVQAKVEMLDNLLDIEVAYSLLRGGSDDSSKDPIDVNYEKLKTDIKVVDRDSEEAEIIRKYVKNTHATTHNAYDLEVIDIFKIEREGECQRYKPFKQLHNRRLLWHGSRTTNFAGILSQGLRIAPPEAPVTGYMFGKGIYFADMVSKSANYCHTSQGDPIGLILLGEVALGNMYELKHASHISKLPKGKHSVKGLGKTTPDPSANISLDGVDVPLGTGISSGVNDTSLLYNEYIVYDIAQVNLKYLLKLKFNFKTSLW

IC50 (PARP1; Table 1, A series): 10.1 ± 0.6 nM
Structure (SMILES): O=C(C1CCCCC1)N1CCN(Cc2cc(Cc3n[nH]c(=O)c4ccccc34)ccc2F)CC1 [A23, 4-(3-((4-(Cyclohexanecarbonyl)piperazin-1-yl)methyl)-4-fluorobenzyl)phthalazin-1(2H)-one]

IC50 (PARP1; Table 1, A series): > 50 nM
Structure (SMILES): O=c1[nH]nc(Cc2ccc(F)c(CN3CCN(Cc4ccc5c(c4)OCO5)CC3)c2)c2ccccc12 [A15, 4-(3-((4-(Benzo[d][1,3]dioxol-5-ylmethyl)piperazin-1-yl)methyl)-4-fluorobenzyl)phthalazin-1(2H)-one]

IC50 (PARP1; Table 1, A series): 17.6 ± 1.3 nM
Structure (SMILES): O=C(c1cccc(F)c1)N1CCN(Cc2cc(Cc3n[nH]c(=O)c4ccccc34)ccc2F)CC1 [A3, 4-(4-Fluoro-3-((4-(3-fluorobenzoyl)piperazin-1-yl)methyl)benzyl)phthalazin-1(2H)-one]

IC50 (PARP1; Table 1, A series): 33.2 ± 3.1 nM
Structure (SMILES): O=C(c1ccccc1C(F)(F)F)N1CCN(Cc2cc(Cc3n[nH]c(=O)c4ccccc34)ccc2F)CC1 [A5, 4-(4-Fluoro-3-((4-(2-(trifluoromethyl)benzoyl)piperazin-1-yl)methyl)benzyl)phthalazin-1(2H)-one]

IC50 (PARP1; Table 1, A series): 9.3 ± 0.3 nM
Structure (SMILES): O=C(C1CCC(F)(F)CC1)N1CCN(Cc2cc(Cc3n[nH]c(=O)c4ccccc34)ccc2F)CC1 [A22, 4-(3-((4-(4,4-Difluorocyclohexane-1-carbonyl)piperazin-1-yl)methyl)-4-fluorobenzyl) phthalazin-1(2H)-one]

IC50 (PARP1; Table 1, A series): > 50 nM
Structure (SMILES): O=C(c1ccccc1)N1CCN(Cc2cc(Cc3n[nH]c(=O)c4ccccc34)ccc2F)CC1 [A12, 4-(3-((4-Benzoylpiperazin-1-yl)methyl)-4-fluorobenzyl)phthalazin-1(2H)-one]

IC50 (PARP1; Table 1, A series): > 50 nM
Structure (SMILES): NC(=O)C1CCN(Cc2cc(Cc3n[nH]c(=O)c4ccccc34)ccc2F)CC1 [A14, 1-(2-Fluoro-5-((4-oxo-3,4-dihydrophthalazin-1-yl)methyl)benzyl)piperidine-4-carboxamide]

IC50 (PARP1; Table 2, B and C series): 11.8 ± 1.3 nM
Structure (SMILES): CC(C)CNNC(=O)c1cc(Cc2n[nH]c(=O)c3ccccc23)ccc1F [B4, 2-Fluoro-N′-isobutyl-5-((4-oxo-3,4-dihydrophthalazin-1-yl)methyl)benzohydrazide]

IC50 (PARP1; Table 2, B and C series): 5.2 ± 0.4 nM
Structure (SMILES): CCCCCNNC(=O)c1cc(Cc2n[nH]c(=O)c3ccccc23)ccc1F [B5, 2-Fluoro-5-((4-oxo-3,4-dihydrophthalazin-1-yl)methyl)-N′-pentylbenzohydrazide]

IC50 (PARP1; Table 1, A series): > 50 nM
Structure (SMILES): O=c1[nH]nc(Cc2ccc(F)c(CN3CCC(N4CCCCC4)CC3)c2)c2ccccc12 [A16, 4-(3-([1,4′-Bipiperidin]-1′-ylmethyl)-4-fluorobenzyl)phthalazin-1(2H)-one]

IC50 (PARP1; Table 1, A series): > 50 nM
Structure (SMILES): O=C(c1cccc(C(F)(F)F)c1)N1CCN(Cc2cc(Cc3n[nH]c(=O)c4ccccc34)ccc2F)CC1 [A6, 4-(4-Fluoro-3-((4-(3-(trifluoromethyl)benzoyl)piperazin-1-yl)methyl)benzyl)phthalazin-1(2H)-one]

Structure (SMILES): O=C(c1ccc(N(CCCl)CCCl)cc1)N1CCN(C(=O)c2cc(Cc3n[nH]c(=O)c4ccccc34)ccc2F)CC1 [C1, 4-(3-(4-(4-(Bis(2-chloroethyl)amino)benzoyl)piperazine-1-carbonyl)-4-fluorobenzyl) phthalazin-1(2H)-one]
IC50 (PARP1; Table 2, B and C series): 1.2 ± 0.11 nM
IC50 (MDA-MB-436 cells): 18 ± 2 nM
IC50 (SKOV3 cells): > 100000 nM
IC50 (A549 cells): 14100 ± 1100 nM
IC50 (U251 cells): > 100000 nM
IC50 (CH151 cells): > 100000 nM
IC50 (8226 cells): > 100000 nM
IC50 (U87 cells): > 100000 nM
IC50 (MCF-7 cells): > 100000 nM
IC50 (SW620 cells): > 100000 nM
IC50 (MDA-MB-231 cells): > 100000 nM
IC50 (K562 cells): > 20000 nM
IC50 (B16 cells): > 100000 nM
IC50 (Hela cells): > 100000 nM
IC50 (HCC1937 cells): 360 ± 20 nM
IC50 (Capan-1 cells): 105 ± 10 nM
IC50 (Raji cells): > 100000 nM

IC50 (PARP1; Table 1, A series): > 50 nM
Structure (SMILES): COc1ccc(C(=O)N2CCN(Cc3cc(Cc4n[nH]c(=O)c5ccccc45)ccc3F)CC2)cc1 [A13, 4-(4-Fluoro-3-((4-(4-methoxybenzoyl)piperazin-1-yl)methyl)benzyl)phthalazin-1(2H)-one]

IC50 (PARP1; Table 1, A series): 42.2 ± 4.1 nM
Structure (SMILES): O=C(c1ccc(C(F)(F)F)cc1)N1CCN(Cc2cc(Cc3n[nH]c(=O)c4ccccc34)ccc2F)CC1 [A4, 4-(4-Fluoro-3-((4-(4-(trifluoromethyl)benzoyl)piperazin-1-yl)methyl)benzyl)phthalazin-1(2H)-one]

IC50 (PARP1; Table 1, A series): 31.2 ± 2.4 nM
Structure (SMILES): O=C(c1ccc(F)cc1)N1CCN(Cc2cc(Cc3n[nH]c(=O)c4ccccc34)ccc2F)CC1 [A1, 4-(4-Fluoro-3-((4-(4-fluorobenzoyl)piperazin-1-yl)methyl)benzyl)phthalazin-1(2H)-one]

IC50 (PARP1; Table 1, A series): 12.6 ± 0.9 nM
Structure (SMILES): O=C(c1ccc2c(c1)OCO2)N1CCN(Cc2cc(Cc3n[nH]c(=O)c4ccccc34)ccc2F)CC1 [A20, 4-(3-((4-(Benzo[d][1,3]dioxole-5-carbonyl)piperazin-1-yl)methyl)-4-fluorobenzyl)phthalazin-1(2H)-one]

IC50 (PARP1; Table 2, B and C series): 2.8 ± 0.1 nM
IC50 (MDA-MB-436 cells): > 1000 nM
IC50 (SKOV3 cells): > 100000 nM
IC50 (A549 cells): > 100000 nM
IC50 (U251 cells): > 100000 nM
IC50 (U87 cells): > 100000 nM
IC50 (MCF-7 cells): > 100000 nM
IC50 (SW620 cells): > 100000 nM
IC50 (MDA-MB-231 cells): > 100000 nM
IC50 (K562 cells): > 20000 nM
IC50 (B16 cells): > 100000 nM
IC50 (Hela cells): > 100000 nM
IC50 (HCC1937 cells): > 1000 nM
IC50 (Raji cells): > 100000 nM
Structure (SMILES): CCCCNNC(=O)c1cc(Cc2n[nH]c(=O)c3ccccc23)ccc1F [B3, N′-butyl-2-fluoro-5-((4-oxo-3,4-dihydrophthalazin-1-yl)methyl)benzohydrazide]
IC50 (CH151 cells): > 100000 nM
IC50 (8226 cells): > 100000 nM
IC50 (Capan-1 cells): > 1000 nM

IC50 (PARP1; Table 1, A series): 29.4 ± 2.3 nM
Structure (SMILES): COc1ccccc1C(=O)N1CCN(Cc2cc(Cc3n[nH]c(=O)c4ccccc34)ccc2F)CC1 [A11, 4-(4-Fluoro-3-((4-(2-methoxybenzoyl)piperazin-1-yl)methyl)benzyl)phthalazin-1(2H)-one]

IC50 (PARP1; Table 1, A series): 29.4 ± 2.2 nM
Structure (SMILES): O=C(c1ccccc1F)N1CCN(Cc2cc(Cc3n[nH]c(=O)c4ccccc34)ccc2F)CC1 [A2, 4-(4-Fluoro-3-((4-(2-fluorobenzoyl)piperazin-1-yl)methyl)benzyl)phthalazin-1(2H)-one]

IC50 (PARP1; Table 1, A series): > 50 nM
Structure (SMILES): O=c1[nH]nc(Cc2ccc(F)c(CN3CCC(Cc4ccccc4)CC3)c2)c2ccccc12 [A18, 4-(3-((4-Benzylpiperidin-1-yl)methyl)-4-fluorobenzyl)phthalazin-1(2H)-one]

IC50 (PARP1; Table 1, A series): > 50 nM
Structure (SMILES): COC(=O)C1CCN(Cc2cc(Cc3n[nH]c(=O)c4ccccc34)ccc2F)CC1 [A17, Methyl1-(2-fluoro-5-((4-oxo-3,4-dihydrophthalazin-1-yl)methyl)benzyl)piperidine-4-carboxylate]

IC50 (PARP1; Table 1, A series): 8.4 ± 0.4 nM
Structure (SMILES): O=C(C1CC1)N1CCN(Cc2cc(Cc3n[nH]c(=O)c4ccccc34)ccc2F)CC1 [A21, 4-(3-((4-(Cyclopropanecarbonyl)piperazin-1-yl)methyl)-4-fluorobenzyl)phthalazin-1(2H)-one]

IC50 (PARP1; Table 1, A series): 21.4 ± 1.4 nM
Structure (SMILES): CCc1ccc(C(=O)N2CCN(Cc3cc(Cc4n[nH]c(=O)c5ccccc45)ccc3F)CC2)cc1 [A10, 4-(3-((4-(4-Ethylbenzoyl)piperazin-1-yl)methyl)-4-fluorobenzyl)phthalazin-1(2H)-one]

IC50 (PARP1; Table 1, A series): 22.5 ± 2.1 nM
Structure (SMILES): O=C(c1cccc(Br)c1)N1CCN(Cc2cc(Cc3n[nH]c(=O)c4ccccc34)ccc2F)CC1 [A8, 4-(3-((4-(3-Bromobenzoyl)piperazin-1-yl)methyl)-4-fluorobenzyl)phthalazin-1(2H)-one]

IC50 (PARP1; Table 2, B and C series): 9.4 ± 0.8 nM
Structure (SMILES): CCCCCCNNC(=O)c1cc(Cc2n[nH]c(=O)c3ccccc23)ccc1F [B6, 2-Fluoro-N′-hexyl-5-((4-oxo-3,4-dihydrophthalazin-1-yl)methyl)benzohydrazide]

IC50 (PARP1; Table 1, A series): 24.6 ± 2.1 nM
Structure (SMILES): O=C(c1ccccc1Cl)N1CCN(Cc2cc(Cc3n[nH]c(=O)c4ccccc34)ccc2F)CC1 [A7, 4-(3-((4-(2-Chlorobenzoyl)piperazin-1-yl)methyl)-4-fluorobenzyl)phthalazin-1(2H)-one]

IC50 (PARP1; Table 1, A series): 12.6 ± 1.1 nM
Structure (SMILES): Cc1ccccc1C(=O)N1CCN(Cc2cc(Cc3n[nH]c(=O)c4ccccc34)ccc2F)CC1 [A9, 4-(4-Fluoro-3-((4-(2-methylbenzoyl)piperazin-1-yl)methyl)benzyl)phthalazin-1(2H)-one]
